According to patent US20260022142A1, “MACROCYCLIC IMMUNOMODULATORS” (Bristol-Myers Squibb Company, priority 2022, published 2026):
Bridge positions count the residues as written; N and C are the ends. Square brackets hold non-standard residues; d marks the D form. Peptide text beside a SMILES is read from it. * marks the point of attachment. ξ: configuration not given here. Ala(morpholin-4-yl) = N[C@@H](CN1CCOCC1)C(=O)O; Bip = N[C@@H](Cc1ccc(-c2ccccc2)cc1)C(=O)O; NH(CH2)14COOH = O=C(O)CCCCCCCCCCCCCCN*; Phe(3-Me) = Cc1cccc(C[C@H](N)C(=O)O)c1; Val(3-OH) = CC(C)(O)[C@H](N)C(=O)O; hArg = N=C(N)NCCCC[C@H](N)C(=O)O; hhGln = NC(=O)CCCC[C@H](N)C(=O)O; 3Thi = N[C@@H](Cc1ccsc1)C(=O)O; Cha = N[C@@H](CC1CCCCC1)C(=O)O; Cit = NC(=O)NCCC[C@H](N)C(=O)O; Ile(3ξ) = CCC(C)[C@H](N)C(=O)O; Thr(3ξ) = CC(O)[C@H](N)C(=O)O; Carboxymethyl = O=C(O)C*; Orn = NCCC[C@H](N)C(=O)O; Pra = C#CC[C@H](N)C(=O)O; Aun = NCCCCCCCCCCC(=O)O; Dab = NCC[C@H](N)C(=O)O; Dap = NC[C@H](N)C(=O)O; AEEA = NCCOCCOCC(=O)O

Molecular target: T1, PD-1/PD-L1 interaction (PE-labeled human PD-L1-Ig binding to Jurkat cell line over-expressing human PD-1) (Homo sapiens, UniProt Q15116)
T1 construct: expressed in transfected cells; host or cells: Jurkat
Test: Jurkat-PD-1 Cell Binding High-Content Screening Assay (CBA)
Assay type: cell-based
Details: Jurkat cell line over-expressing human PD-1; PE-labeled PD-L1-Ig 20 nM final; read-out: Jurkat hPD1-PDL1 IC50
Method in brief: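 Human PD-L1-Ig carrying a covalent PE label on its Ig tag serves as the probe, applied at 20 nM final to compound-treated (2 h, 37° C) Jurkat-hPD-1 cells in medium with 10% fetal calf serum. After one hour, fixation and nuclear staining precede high-content image analysis.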

T1 sequence (Q15116 25-288): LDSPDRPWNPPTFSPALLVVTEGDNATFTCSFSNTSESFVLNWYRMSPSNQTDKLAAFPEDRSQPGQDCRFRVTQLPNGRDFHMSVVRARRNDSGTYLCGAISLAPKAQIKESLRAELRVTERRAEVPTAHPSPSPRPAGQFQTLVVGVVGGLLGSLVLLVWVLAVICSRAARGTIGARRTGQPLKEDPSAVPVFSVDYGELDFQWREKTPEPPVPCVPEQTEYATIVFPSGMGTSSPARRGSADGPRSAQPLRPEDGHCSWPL

IC50 [µM] | Compound
0.0079 | CC(C)C[C@H]1NC(=O)[C@H](CCCN)NC(=O)[C@H](C(C)C)NC(=O)[C@H](Cc2ccc(-c3ccccc3)cc2)NC(=O)[C@H](C(C)C)NC(=O)[C@H](Cc2c[nH]c3ccccc23)NC(=O)[C@H](CC(=O)O)NC(=O)[C@H](Cc2ccc(OCC(=O)O)cc2)NC(=O)[C@H](C(C)O)NC(=O)CSC[C@@H](C(=O)N[C@@H](C)C(=O)NCCOCCOCC(=O)N[C@@H](CCN)C(=O)NCCCCCCCCCCC(=O)O)NC(=O)[C@H](C(C)O)NC(=O)[C@H](C(C)C)NC(=O)[C@H](CC2CCCCC2)NC(=O)[C@H](CCN)NC1=O (stereo partly drawn) [Compound 3029] ({CH2CO}-[Thr(3ξ)]Y(Carboxymethyl)DWV[Bip]V[Orn][dL][Dab][Cha]V[Thr(3ξ)]CA[AEEA][Dab][Aun]-OH; thioether N-14)
0.0141 | Cc1cccc(C[C@@H]2NC(=O)[C@H](CC(=O)O)NC(=O)[C@H](Cc3ccc(OCC(=O)O)cc3)NC(=O)[C@H](CCCCNC(=N)N)NC(=O)CSC[C@@H](C(=O)N[C@@H](CCN)C(=O)NCCCCCCCCCCC(=O)O)NC(=O)[C@H](C(C)O)NC(=O)[C@H](C(C)C)NC(=O)[C@H](CC3CCCCC3)NC(=O)[C@H](CCN)NC(=O)[C@@H](CC(C)C)NC(=O)[C@H](CCCN)NC(=O)[C@H](CCCNC(N)=O)NC(=O)[C@H](Cc3ccc(-c4ccccc4)cc3)NC(=O)[C@H](C(C)C)NC2=O)c1 (stereo partly drawn) [Compound 3302] ({CH2CO}-[hArg]Y(Carboxymethyl)D[Phe(3-Me)]V[Bip][Cit][Orn][dL][Dab][Cha]V[Thr(3ξ)]C[Dab][Aun]-OH; thioether N-14)
0.0203 | Cc1cccc(C[C@@H]2NC(=O)[C@H](CC(=O)O)NC(=O)[C@H](Cc3c[nH]cn3)NC(=O)[C@H](CCCNC(=N)N)NC(=O)CSC[C@@H](C(=O)N[C@@H](CCCCN)C(=O)NCCCCCCCCCCC(=O)O)NC(=O)[C@H](CCCN)NC(=O)[C@H](C(C)C)NC(=O)[C@H](CC3CCCCC3)NC(=O)[C@H](CCN)NC(=O)[C@@H](CC(C)C)NC(=O)[C@H](CCCN)NC(=O)[C@H](C(C)C)NC(=O)[C@H](Cc3ccc(-c4ccccc4)cc3)NC(=O)[C@H](C(C)C)NC2=O)c1 [Compound 3296] ({CH2CO}-RHD[Phe(3-Me)]V[Bip]V[Orn][dL][Dab][Cha]V[Orn]CK[Aun]-OH; thioether N-14)
0.0141 | CC(C)C[C@H]1NC(=O)[C@H](CCCN)NC(=O)[C@H](CCCCC(N)=O)NC(=O)[C@H](Cc2ccc(-c3ccccc3)cc2)NC(=O)[C@H](C(C)C)NC(=O)[C@H](Cc2c[nH]c3ccccc23)NC(=O)[C@H](CC(=O)O)NC(=O)[C@H](Cc2ccc(OCC(=O)O)cc2)NC(=O)[C@H](CN)NC(=O)CSC[C@@H](C(=O)N[C@@H](CCN)C(=O)NCCOCCOCC(=O)NCCCCCCCCCCC(=O)O)NC(=O)[C@H](CCCCN)NC(=O)[C@H](C(C)C)NC(=O)[C@H](CC2CCCCC2)NC(=O)[C@H](CCN)NC1=O [Compound 2631] ({CH2CO}-[Dap]Y(Carboxymethyl)DWV[Bip][hhGln][Orn][dL][Dab][Cha]VKC[Dab][AEEA][Aun]-OH; thioether N-14)
0.009 | C#CC[C@H](NC(=O)[C@H](CCN)NC(=O)[C@@H]1CSCC(=O)N[C@@H](CN2CCOCC2)C(=O)N[C@@H](Cc2ccc(OCC(=O)O)cc2)C(=O)N[C@@H](CC(=O)O)C(=O)N[C@@H](Cc2cccc(C)c2)C(=O)N[C@@H](Cc2ccc(OCC(=O)O)cc2)C(=O)N[C@@H](Cc2ccc(-c3ccccc3)cc2)C(=O)N[C@@H](Cc2ccc(OCC(=O)O)cc2)C(=O)N[C@@H](CCCN)C(=O)N[C@H](CC(C)C)C(=O)N[C@@H](CCN)C(=O)N[C@@H](CC2CCCCC2)C(=O)N[C@@H](C(C)(C)O)C(=O)N[C@@H](CO)C(=O)N1)C(=O)NCCCCCCCCCCC(=O)O [Compound 1279] ({CH2CO}-[Ala(morpholin-4-yl)]Y(Carboxymethyl)D[Phe(3-Me)]Y(Carboxymethyl)[Bip]Y(Carboxymethyl)[Orn][dL][Dab][Cha][Val(3-OH)]SC[Dab][Pra][Aun]-OH; thioether N-14)
0.0082 | CC[C@H](C)[C@@H]1NC(=O)[C@H](Cc2ccc(-c3ccccc3)cc2)NC(=O)[C@H](C(C)C)NC(=O)[C@H](Cc2c[nH]c3ccccc23)NC(=O)[C@H](CC(=O)O)NC(=O)[C@H](Cc2ccc(OCC(=O)O)cc2)NC(=O)[C@H](Cc2ccc(OCC(=O)O)cc2)NC(=O)CSC[C@@H](C(=O)NCCOCCOCC(=O)N[C@@H](CCN)C(=O)NCCCCCCCCCCC(=O)O)NC(=O)[C@H](CCCNC(=N)N)NC(=O)[C@H](C(C)C)NC(=O)[C@H](CC2CCCCC2)NC(=O)[C@H](CCN)NC(=O)[C@@H](CC(C)C)NC(=O)[C@H](CCCN)NC1=O [Compound 2656] ({CH2CO}-Y(Carboxymethyl)Y(Carboxymethyl)DWV[Bip]I[Orn][dL][Dab][Cha]VRC[AEEA][Dab][Aun]-OH; thioether N-14)
0.202 | CCC(C)[C@@H]1NC(=O)[C@H](Cc2ccc(-c3ccccc3)cc2)NC(=O)[C@H](C(C)C)NC(=O)[C@H](Cc2c[nH]c3ccccc23)NC(=O)[C@H](CC(=O)O)NC(=O)[C@H](Cc2ccc(OCC(=O)O)cc2)NC(=O)[C@H](Cc2ccc(OCC(=O)O)cc2)NC(=O)CSC[C@@H](C(=O)N[C@H](C)C(=O)NCCOCCOCC(=O)NCCCCCCCCCCCCCCC(=O)O)NC(=O)[C@H](CCCNC(=N)N)NC(=O)[C@H](C(C)(C)O)NC(=O)[C@H](CC2CCCCC2)NC(=O)[C@H](CCN)NC(=O)[C@@H](CC(C)C)NC(=O)[C@H](CCCN)NC1=O (stereo partly drawn) [Compound 3886] ({CH2CO}-Y(Carboxymethyl)Y(Carboxymethyl)DWV[Bip][Ile(3ξ)][Orn][dL][Dab][Cha][Val(3-OH)]RC[dA][AEEA]-{NH(CH2)14COOH}; thioether N-14)
0.0297 | CC(C)C[C@H]1NC(=O)[C@H](CCCN)NC(=O)[C@H](C(C)C)NC(=O)[C@H](Cc2ccc(-c3ccccc3)cc2)NC(=O)[C@H](C(C)C)NC(=O)[C@H](Cc2c[nH]c3ccccc23)NC(=O)[C@H](CC(=O)O)NC(=O)[C@H](Cc2ccc(OCC(=O)O)cc2)NC(=O)[C@H](CN)NC(=O)CSC[C@@H](C(=O)NCCOCCOCC(=O)N[C@@H](CCCCN)C(=O)NCCCCCCCCCCC(=O)O)NC(=O)[C@H](C(C)O)NC(=O)[C@H](C(C)C)NC(=O)[C@H](CC2CCCCC2)NC(=O)[C@H](CC(=O)O)NC1=O (stereo partly drawn) [Compound 3147] ({CH2CO}-[Dap]Y(Carboxymethyl)DWV[Bip]V[Orn][dL]D[Cha]V[Thr(3ξ)]C[AEEA]K[Aun]-OH; thioether N-14)
0.155 | Cc1cccc(C[C@@H]2NC(=O)[C@H](CC(=O)O)NC(=O)[C@H](Cc3ccc(OCC(=O)O)cc3)NC(=O)[C@H](CCCNC(=N)N)NC(=O)CSC[C@@H](C(=O)N[C@@H](CCN)C(=O)NCCCCCCCCCCC(=O)O)NC(=O)[C@H](Cc3ccsc3)NC(=O)[C@H](C(C)C)NC(=O)[C@H](CC3CCCCC3)NC(=O)[C@H](CCN)NC(=O)[C@@H](CC(C)C)NC(=O)[C@H](CCCN)NC(=O)[C@H](Cc3ccc(OCC(=O)O)cc3)NC(=O)[C@H](Cc3ccc(-c4ccccc4)cc3)NC(=O)[C@H](Cc3ccc(OCC(=O)O)cc3)NC2=O)c1 [Compound 3545] ({CH2CO}-RY(Carboxymethyl)D[Phe(3-Me)]Y(Carboxymethyl)[Bip]Y(Carboxymethyl)[Orn][dL][Dab][Cha]V[3Thi]C[Dab][Aun]-OH; thioether N-14)
